Measured values taken from ChEMBL document CHEMBL1641470, “New azoles with antifungal activity: Design, synthesis, and molecular docking” (2011).
≈ marks a conversion by molar mass, not a printed value.

What was measured:
Format in all cases: functional
[1] = system: Candida albicans; assay: Antifungal activity against Candida albicans ATCC Y0109 after 24 hrs by broth microdilution method
[2] = system: Cryptococcus neoformans; assay: Antifungal activity against Cryptococcus neoformans ATCC BLS108 after 72 hrs by broth microdilution method
[3] = system: Candida parapsilosis; assay: Antifungal activity against Candida parapsilosis by broth microdilution method; details: Lodderomyces parapsilosis
[4] = system: Candida tropicalis; assay: Antifungal activity against Candida tropicalis by broth microdilution method
[5] = system: Trichophyton rubrum; assay: Antifungal activity against Trichophyton rubrum by broth microdilution method
[6] = system: Fusarium; assay: Antifungal activity against Fusarium by broth microdilution method
[7] = system: Nannizzia gypsea; assay: Antifungal activity against Microsporum gypseum by broth microdilution method
[8] = system: Aspergillus fumigatus; assay: Antifungal activity against Aspergillus fumigatus by broth microdilution method

SMILES	MIC80 [1]	MIC80 [2]	MIC80 [3]	MIC80 [4]	MIC80 [5]	MIC80 [6]	MIC80 [7]	MIC80 [8]
O=C(/C=C/c1ccccc1)Nc1ccc(N2CCN(CC(O)(Cn3cncn3)c3ccc(F)cc3F)CC2)c(F)c1 (stereo not drawn)	0.25 µg/mL (≈ 0.444 µM)	0.0156 µg/mL (≈ 0.0277 µM)	0.0625 µg/mL (≈ 0.111 µM)	0.0625 µg/mL (≈ 0.111 µM)	0.0625 µg/mL (≈ 0.111 µM)	0.25 µg/mL (≈ 0.444 µM)	0.25 µg/mL (≈ 0.444 µM)	1 µg/mL (≈ 1.78 µM)
O=C(/C=C/c1ccccc1F)Nc1ccc(N2CCN(CC(O)(Cn3cncn3)c3ccc(F)cc3F)CC2)c(F)c1 (stereo not drawn)	0.25 µg/mL (≈ 0.431 µM)	0.25 µg/mL (≈ 0.431 µM)	0.0625 µg/mL (≈ 0.108 µM)	0.0625 µg/mL (≈ 0.108 µM)	0.0625 µg/mL (≈ 0.108 µM)	1 µg/mL (≈ 1.72 µM)	0.25 µg/mL (≈ 0.431 µM)	4 µg/mL (≈ 6.89 µM)
O=C(/C=C/c1ccc(F)cc1)Nc1ccc(N2CCN(CC(O)(Cn3cncn3)c3ccc(F)cc3F)CC2)c(F)c1 (stereo not drawn)	0.25 µg/mL (≈ 0.431 µM)	0.25 µg/mL (≈ 0.431 µM)	0.0156 µg/mL (≈ 0.0269 µM)	0.0156 µg/mL (≈ 0.0269 µM)	0.0625 µg/mL (≈ 0.108 µM)	0.25 µg/mL (≈ 0.431 µM)	0.25 µg/mL (≈ 0.431 µM)	1 µg/mL (≈ 1.72 µM)
O=C(/C=C/c1ccc(Cl)cc1)Nc1ccc(N2CCN(CC(O)(Cn3cncn3)c3ccc(F)cc3F)CC2)c(F)c1 (stereo not drawn)	0.25 µg/mL (≈ 0.419 µM)	0.25 µg/mL (≈ 0.419 µM)	0.0156 µg/mL (≈ 0.0261 µM)	0.0625 µg/mL (≈ 0.105 µM)	0.25 µg/mL (≈ 0.419 µM)	0.25 µg/mL (≈ 0.419 µM)	0.0625 µg/mL (≈ 0.105 µM)	1 µg/mL (≈ 1.67 µM)
Cc1ccc(/C=C/C(=O)Nc2ccc(N3CCN(CC(O)(Cn4cncn4)c4ccc(F)cc4F)CC3)c(F)c2)cc1 (stereo not drawn)	0.25 µg/mL (≈ 0.434 µM)	4 µg/mL (≈ 6.94 µM)	1 µg/mL (≈ 1.73 µM)	0.0625 µg/mL (≈ 0.108 µM)	0.25 µg/mL (≈ 0.434 µM)	1 µg/mL (≈ 1.73 µM)	0.25 µg/mL (≈ 0.434 µM)	1 µg/mL (≈ 1.73 µM)
COc1ccc(/C=C/C(=O)Nc2ccc(N3CCN(CC(O)(Cn4cncn4)c4ccc(F)cc4F)CC3)c(F)c2)cc1OC (stereo not drawn)	0.25 µg/mL (≈ 0.402 µM)	1 µg/mL (≈ 1.61 µM)	0.25 µg/mL (≈ 0.402 µM)	1 µg/mL (≈ 1.61 µM)	4 µg/mL (≈ 6.42 µM)	4 µg/mL (≈ 6.42 µM)	0.25 µg/mL (≈ 0.402 µM)	> 64 µg/mL
O=C(/C=C/c1ccccc1[N+](=O)[O-])Nc1ccc(N2CCN(CC(O)(Cn3cncn3)c3ccc(F)cc3F)CC2)c(F)c1 (stereo not drawn)	0.25 µg/mL (≈ 0.411 µM)	1 µg/mL (≈ 1.65 µM)	1 µg/mL (≈ 1.65 µM)	1 µg/mL (≈ 1.65 µM)	0.25 µg/mL (≈ 0.411 µM)	16 µg/mL (≈ 26.3 µM)	1 µg/mL (≈ 1.65 µM)	64 µg/mL (≈ 105 µM)
O=C(/C=C/c1cccc([N+](=O)[O-])c1)Nc1ccc(N2CCN(CC(O)(Cn3cncn3)c3ccc(F)cc3F)CC2)c(F)c1 (stereo not drawn)	0.0039 µg/mL (≈ 0.00642 µM)	0.0625 µg/mL (≈ 0.103 µM)	0.0625 µg/mL (≈ 0.103 µM)	0.0625 µg/mL (≈ 0.103 µM)	0.0625 µg/mL (≈ 0.103 µM)	0.0625 µg/mL (≈ 0.103 µM)	0.0625 µg/mL (≈ 0.103 µM)	> 64 µg/mL

The remaining lines, values ahead:

MIC80 [1]	MIC80 [2]	MIC80 [3]	MIC80 [4]	MIC80 [5]	MIC80 [6]	MIC80 [7]	MIC80 [8]	SMILES
0.0156 µg/mL (≈ 0.0274 µM)	1 µg/mL (≈ 1.76 µM)	0.25 µg/mL (≈ 0.439 µM)	0.25 µg/mL (≈ 0.439 µM)	1 µg/mL (≈ 1.76 µM)	16 µg/mL (≈ 28.1 µM)	0.0625 µg/mL (≈ 0.11 µM)	> 64 µg/mL	N#Cc1cccc(/C=C/C(=O)Nc2ccc(N3CCN(CC(O)(Cn4cncn4)c4ccc(F)cc4F)CC3)cc2)c1 (stereo not drawn)
0.25 µg/mL (≈ 0.431 µM)	0.25 µg/mL (≈ 0.431 µM)	0.0156 µg/mL (≈ 0.0269 µM)	0.25 µg/mL (≈ 0.431 µM)	0.25 µg/mL (≈ 0.431 µM)	0.25 µg/mL (≈ 0.431 µM)	0.25 µg/mL (≈ 0.431 µM)	4 µg/mL (≈ 6.89 µM)	O=C(/C=C/c1cccc(F)c1)Nc1ccc(N2CCN(CC(O)(Cn3cncn3)c3ccc(F)cc3F)CC2)c(F)c1 (stereo not drawn)
1 µg/mL (≈ 1.67 µM)	1 µg/mL (≈ 1.67 µM)	0.25 µg/mL (≈ 0.419 µM)	0.25 µg/mL (≈ 0.419 µM)	0.25 µg/mL (≈ 0.419 µM)	1 µg/mL (≈ 1.67 µM)	0.25 µg/mL (≈ 0.419 µM)	4 µg/mL (≈ 6.7 µM)	O=C(/C=C/c1ccccc1Cl)Nc1ccc(N2CCN(CC(O)(Cn3cncn3)c3ccc(F)cc3F)CC2)c(F)c1 (stereo not drawn)
1 µg/mL (≈ 1.67 µM)	0.25 µg/mL (≈ 0.419 µM)	0.25 µg/mL (≈ 0.419 µM)	0.0625 µg/mL (≈ 0.105 µM)	0.25 µg/mL (≈ 0.419 µM)	1 µg/mL (≈ 1.67 µM)	0.0625 µg/mL (≈ 0.105 µM)	1 µg/mL (≈ 1.67 µM)	O=C(/C=C/c1cccc(Cl)c1)Nc1ccc(N2CCN(CC(O)(Cn3cncn3)c3ccc(F)cc3F)CC2)c(F)c1 (stereo not drawn)
1 µg/mL (≈ 1.58 µM)	1 µg/mL (≈ 1.58 µM)	0.25 µg/mL (≈ 0.396 µM)	0.0625 µg/mL (≈ 0.099 µM)	0.0625 µg/mL (≈ 0.099 µM)	0.25 µg/mL (≈ 0.396 µM)	0.25 µg/mL (≈ 0.396 µM)	4 µg/mL (≈ 6.33 µM)	O=C(/C=C/c1ccc(Cl)c(Cl)c1)Nc1ccc(N2CCN(CC(O)(Cn3cncn3)c3ccc(F)cc3F)CC2)c(F)c1 (stereo not drawn)
1 µg/mL (≈ 1.56 µM)	0.0156 µg/mL (≈ 0.0243 µM)	0.25 µg/mL (≈ 0.39 µM)	0.0625 µg/mL (≈ 0.0974 µM)	0.25 µg/mL (≈ 0.39 µM)	1 µg/mL (≈ 1.56 µM)	0.25 µg/mL (≈ 0.39 µM)	4 µg/mL (≈ 6.24 µM)	O=C(/C=C/c1cccc(Br)c1)Nc1ccc(N2CCN(CC(O)(Cn3cncn3)c3ccc(F)cc3F)CC2)c(F)c1 (stereo not drawn)
0.25 µg/mL (≈ 0.39 µM)	0.0156 µg/mL (≈ 0.0243 µM)	0.0625 µg/mL (≈ 0.0974 µM)	0.0156 µg/mL (≈ 0.0243 µM)	0.0625 µg/mL (≈ 0.0974 µM)	1 µg/mL (≈ 1.56 µM)	0.0625 µg/mL (≈ 0.0974 µM)	1 µg/mL (≈ 1.56 µM)	O=C(/C=C/c1ccc(Br)cc1)Nc1ccc(N2CCN(CC(O)(Cn3cncn3)c3ccc(F)cc3F)CC2)c(F)c1 (stereo not drawn)
0.0625 µg/mL (≈ 0.1 µM)	1 µg/mL (≈ 1.61 µM)	1 µg/mL (≈ 1.61 µM)	0.25 µg/mL (≈ 0.402 µM)	0.0625 µg/mL (≈ 0.1 µM)	64 µg/mL (≈ 103 µM)	1 µg/mL (≈ 1.61 µM)	> 64 µg/mL	COc1ccc(OC)c(/C=C/C(=O)Nc2ccc(N3CCN(CC(O)(Cn4cncn4)c4ccc(F)cc4F)CC3)c(F)c2)c1 (stereo not drawn)
